Assay [1] concerns HUVEC. Put plainly: Cytotoxicity against HUVECs assessed as growth inhibition by MTT assay. It is filed as cell-based. Particulars: Homo sapiens.
Assay [2] deals with HL-60. In words: Ratio of sunitinib IC50 to compound IC50 for Homo sapiens (human) HL60 cells. Format: functional.
The test system of assay [3] is K562. Put plainly: Cytotoxicity against Homo sapiens (human) K562 cells assessed as growth inhibition by MTT assay. Format: functional, cell-based. On the technique in general: Tetrazolium dyes change colour on reduction, which living cells bring about.
For assay [4], the system named is HUVEC. Put plainly: Cytotoxicity against recombinant Homo sapiens (human) basic FGF-stimulated HUVECs assessed as growth inhibition by MTT assay. It is filed as functional, cell-based.
In assay [5] the test system is MDA-MB-231. In words: Cytotoxicity against Homo sapiens (human) MDA-MB-231 cells assessed as growth inhibition by MTT assay. It is filed as functional, cell-based.
In assay [6] the test system is A549. In words: Ratio of LK-B030 IC50 to compound IC50 for Homo sapiens (human) A549 cells. Format: functional.
The subject of assay [7] is IM-9. In words: Cytotoxicity against Homo sapiens (human) IM9 cells assessed as growth inhibition by MTT assay. Format: functional, cell-based.
Assay [8] relates to MDA-MB-231. In words: Ratio of LK-B030 IC50 to compound IC50 for Homo sapiens (human) MDA-MB-231 cells. Format: functional.
The test system of assay [9] is A549. In words: Cytotoxicity against Homo sapiens (human) A549 cells assessed as growth inhibition by MTT assay. Format: functional, cell-based.
For assay [10], the system named is K562. Put plainly: Ratio of sunitinib IC50 to compound IC50 for Homo sapiens (human) K562 cells. It is filed as functional.
For assay [11], the system named is HUVEC. In words: Cytotoxicity against VEGF-stimulated HUVECs assessed as growth inhibition by MTT assay. Particulars: Homo sapiens. Format: functional, cell-based.
The test system of assay [12] is HL-60. Put plainly: Cytotoxicity against Homo sapiens (human) HL60 cells assessed as growth inhibition by MTT assay. Format: functional, cell-based.
Assay [13] relates to A549. In words: Ratio of sunitinib IC50 to compound IC50 for Homo sapiens (human) A549 cells. Format: functional.
In assay [14] the test system is MDA-MB-231. In words: Ratio of sunitinib IC50 to compound IC50 for Homo sapiens (human) MDA-MB-231 cells. It is filed as functional.

This is an account of results in ChEMBL document CHEMBL3045410, “Synthesis and in vitro antitumor activity of 1-(3-dimethylamino)propyl indolin-2-one derivatives” (Med Chem Res, 2013).

As usually defined, the pIC50 is −log10 of the IC50, conventionally taken in molar units.

pIC50: −log10 of the molar value.

On to `CCN(CC)CCNC(=O)c1c(C)[nH]c(/C=C2\C(=O)N(CCCN(C)C)c3ccc(Cl)cc32)c1C`, for which the pIC50 in assay [1] is 5.25.
On to `CCOC(=O)c1c(C)[nH]c(/C=C2\C(=O)N(CCCN(C)C)c3ccc(Cl)cc32)c1C.Cl`, for which the “Ratio IC50” value in assay [2] came out at 1.8; in assay [6] it was 1.6; in assay [8], 1.6; in assay [10] it was 1.8; in [13] it was 1.8; in [14] it was 1.8. Further, the pIC50 in assay [3] was 5.87; in assay [4], 4.99; in assay [5], 5.83; in assay [7], 5.53; in [1], 4.66; in assay [9], 5.96. Moreover, the figures for the pIC50 in assay [11] and in [12] were 5.02 and 5.93, respectively.
Consider `Cc1[nH]c(/C=C2\C(=O)N(CCCN(C)C)c3ccc(Cl)cc32)c(C)c1C(=O)N1CCOCC1`, for which the pIC50 is 5.26 in assay [3]; 4.97 in assay [4]; 5.01 in assay [5]; 5.12 in assay [7]; 4.85 in assay [1]; 5.07 in assay [9]. The figures for the pIC50 in [11] and in assay [12] were 5.38 and 5.33, respectively.
For `C/C(=C1/C(=O)N(CCCN(C)C)c2ccc(F)cc21)c1ccc[nH]1`, the pIC50 is 5.19 in assay [3]; 5.05 in [4]; 5.23 in assay [5]; 5.18 in assay [7]; 4.86 in assay [1]; 5.08 in assay [9]. Besides, the pIC50 in assay [11] was 5.01; in assay [12], 5.10.
`CC/C(=C1/C(=O)N(CCCN(C)C)c2ccc(F)cc21)c1ccc[nH]1`: the pIC50 is 5.05 in assay [3]; 5.01 in assay [4]; 4.97 in assay [5]; 4.96 in assay [7]; 4.65 in assay [1]; 4.77 in [9]. Further, the pIC50 in [11] is 5.02; in assay [12] it was 4.99.
As for `CN(C)CCCN1C(=O)/C(=C(/c2ccccc2)c2ccc[nH]2)c2cc(F)ccc21`, the pIC50 in assay [3] was 5.19; in assay [4], 5.05; in assay [5], 5.16; in assay [7] it was 5.25; in [1], 4.37; in assay [9], 4.94. Besides, the pIC50 was 5.02 in [11] and 5.15 in assay [12].
In the case of `CN(C)CCCN1C(=O)C(=C(c2ccccc2)c2ccccc2)c2cc(F)ccc21`, the pIC50 is 5.16 in [3]; 4.96 in assay [4]; 5.18 in [5]; 5.03 in [7]; 4.48 in [1]; 4.87 in [9]. The figures for the pIC50 in assay [11] and in assay [12] were 5.07 and 4.99, respectively.
Consider `CCOC(=O)c1c(C)[nH]c(/C=C2\C(=O)N(CCCN(C)C)c3ccc(F)cc32)c1C`, for which the pIC50 in [3] is 5.81; in [4], 5.74; in assay [5], 5.41; in [7], 5.49; in [1], 5.07; in [9] it was 5.81. The pIC50 in [11] is 5.00; in assay [12], 5.87.
`Cc1[nH]c(/C=C2\C(=O)N(CCCN(C)C)c3ccc(F)cc32)c(C)c1C(=O)N1CCOCC1`: the pIC50 in [3] is 4.24; in assay [4], 4.66; in [5], 4.83; in [7], 4.21; in [1], 4.53; in [9] it was 4.66. The values for the pIC50 in assay [11] and in [12] were 5.04 and 4.88, respectively.
`CCN(CC)CCNC(=O)c1c(C)[nH]c(/C=C2\C(=O)Nc3ccc(F)cc32)c1C` [SUNITINIB]: the pIC50 in assay [1] is 5.41.
